The values below come from ChEMBL document CHEMBL3044736, “Synthesis, characterization, solvatochromic properties, and antimicrobial evaluation of 5-acetyl-2-thioxo-dihydro-pyrimidine-4,6-dione-based chalcones” (2013).

The structures appear in SMILES notation. Values after ≈ are worked out from the molar mass of the structure shown.

What is called MIC is the least concentration at which growth counts as inhibited. A low value points to greater potency.

What all share (format): functional
The subject of one assay is Klebsiella pneumoniae. Nature of the assay: Antimicrobial activity against Klebsiella pneumoniae MTCC 109 by agar cup diffusion method.
For a further assay, the system named is Escherichia coli. Nature of the assay: Antimicrobial activity against Escherichia coli MTCC 443 by agar cup diffusion method.
For a further assay, the system named is Staphylococcus aureus. Kind of assay: Antimicrobial activity against Staphylococcus aureus MTCC 96 by agar cup diffusion method.
A further assay deals with Streptococcus pyogenes. Nature of the assay: Antimicrobial activity against Streptococcus pyogenes MTCC 442 by agar cup diffusion method.
Another assay has as its system Penicillium. Nature of the assay: Antimicrobial activity against Penicillium wild strain by agar cup diffusion method.
Another assay concerns Aspergillus clavatus. Nature of the assay: Antimicrobial activity against Aspergillus clavatus MTCC 1323 by agar cup diffusion method.
A further assay concerns Trichophyton rubrum. Nature of the assay: Antimicrobial activity against Trichophyton rubrum MTCC 296 by agar cup diffusion method.
The test system of the next assay is Candida albicans. Nature of the assay: Antimicrobial activity against Candida albicans MTCC 227 by agar cup diffusion method.

Consider `O=C(O)c1cn(C2CC2)c2cc(N3CCNCC3)c(F)cc2c1=O` [CIPROFLOXACIN], for which the MIC in the assay with Klebsiella pneumoniae was found to be 25 µg/mL (≈ 75.4 µM); against Escherichia coli, 25 µg/mL (≈ 75.4 µM); against Staphylococcus aureus it was 100 µg/mL (≈ 302 µM); in the assay with Streptococcus pyogenes, 50 µg/mL (≈ 151 µM).

`COC1=CC(=O)C[C@@H](C)[C@]12Oc1c(Cl)c(OC)cc(OC)c1C2=O` [GRISEOFULVIN]: the MIC in the assay with Penicillium came to 100 µg/mL (≈ 283 µM); with Aspergillus clavatus, 100 µg/mL (≈ 283 µM); against Trichophyton rubrum, 500 µg/mL (≈ 1420 µM); against Candida albicans, 100 µg/mL (≈ 283 µM).
